Source: patent US10703756B2, “Pyrrolo[2,3-D]pyrimidinyl, pyrrolo[2,3-B]pyrazinyl, pyrrolo[2,3-B]pyridinyl acrylamides and epoxides thereof” (Pfizer Inc., priority 2015, dated 2020)

Assays:
[1] = test system: IL-15 induced STAT5 phosphorylation in human whole blood lymphocytes; test: HWB IL-15 Induced STAT5 Phosphorylation Assay; format: cell-based; conditions: Lymphocyte, IL-15 final 50 ng/ml, read-out: HWB_IL15 pSTAT5 IC50
How it was run: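 Heparinised human whole blood preincubated with compound (0.2% DMSO final) 45 min at 37° C, then stimulated with human IL-15 (50 ng/ml final) for 15 min. After lyse/fix and Perm Buffer III permeabilisation, stained overnight at 4° C with AlexaFluor647 anti-phospho-STAT5; read by flow cytometry gated on total lymphocytes.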

[2] = target: T1, JAK3 enzyme (Homo sapiens, UniProt P52333); test: JAK Caliper Enzyme Assay at 4 μM ATP; format: biochemical
T1 sequence (P52333 1-1124): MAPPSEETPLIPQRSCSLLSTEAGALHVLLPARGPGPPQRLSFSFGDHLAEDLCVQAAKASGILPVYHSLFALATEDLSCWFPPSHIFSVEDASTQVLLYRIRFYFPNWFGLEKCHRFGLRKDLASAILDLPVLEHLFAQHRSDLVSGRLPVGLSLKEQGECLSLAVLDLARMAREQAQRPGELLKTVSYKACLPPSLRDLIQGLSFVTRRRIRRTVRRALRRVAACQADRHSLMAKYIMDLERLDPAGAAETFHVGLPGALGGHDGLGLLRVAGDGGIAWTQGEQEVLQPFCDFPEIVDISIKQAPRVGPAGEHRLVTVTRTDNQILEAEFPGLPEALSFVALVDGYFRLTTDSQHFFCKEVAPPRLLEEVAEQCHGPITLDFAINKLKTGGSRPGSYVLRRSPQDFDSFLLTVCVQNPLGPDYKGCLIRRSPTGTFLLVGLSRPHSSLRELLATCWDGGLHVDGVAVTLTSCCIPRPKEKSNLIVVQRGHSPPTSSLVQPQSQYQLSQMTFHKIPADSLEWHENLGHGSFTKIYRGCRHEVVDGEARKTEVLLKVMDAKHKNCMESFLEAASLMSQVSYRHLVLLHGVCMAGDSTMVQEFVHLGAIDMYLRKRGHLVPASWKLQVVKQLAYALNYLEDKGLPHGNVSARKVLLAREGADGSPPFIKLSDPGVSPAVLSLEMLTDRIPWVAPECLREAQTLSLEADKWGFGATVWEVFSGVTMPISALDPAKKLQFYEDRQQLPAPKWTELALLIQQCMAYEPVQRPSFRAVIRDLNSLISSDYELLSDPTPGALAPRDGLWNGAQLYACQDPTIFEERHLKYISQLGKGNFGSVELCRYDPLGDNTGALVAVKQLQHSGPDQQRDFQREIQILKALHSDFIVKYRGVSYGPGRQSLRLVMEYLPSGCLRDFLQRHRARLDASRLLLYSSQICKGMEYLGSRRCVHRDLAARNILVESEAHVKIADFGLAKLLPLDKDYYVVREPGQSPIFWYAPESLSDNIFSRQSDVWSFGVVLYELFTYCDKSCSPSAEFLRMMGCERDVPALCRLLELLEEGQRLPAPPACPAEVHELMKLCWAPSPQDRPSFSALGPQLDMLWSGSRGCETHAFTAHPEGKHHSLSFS
How it was run: (§1)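 Test compounds were diluted in DMSO as an 11-point half-log series from a 600 μM top concentration (DMSO series, not final assay level). Enzyme amount and incubation time were set per enzyme prep to reach 20%-30% phosphorylation. Phosphorylated and unphosphorylated peptide were resolved by microfluidic separation.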

[3] = target: T1, JAK3 enzyme; test: JAK Caliper Enzyme Assay at 1 mM ATP; format: biochemical
How it was run: as §1

[4] = test system: IL-15 induced P-STAT5 in human PBMC; test: PBMC IL-15 Induced P-STAT5; format: cell-based; conditions: human PBMC, IL-15 final 41 ng/mL; read-out: PBMC IL15_pSTAT5_IC50
How it was run: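 Thawed human PBMC, rested in human plasma, were preincubated 15 min at 37 °C with compound (0.2% DMSO), then stimulated 15 min with IL-15 at 41 ng/mL final. After paraformaldehyde fixation and methanol permeabilisation, Alexa Fluor 647 anti-STAT5 staining overnight at 4 °C was analysed by flow cytometry on total lymphocytes.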

SMILES | IC50 [1] [nM] | IC50 [2] [nM] | IC50 [3] [nM] | IC50 [4] [nM]
C=CC(=O)N1CC[C@@H](Nc2cnc3[nH]cc(C(=O)NCC(F)(F)F)c3n2)[C@@H](OC)C1 [Example 317, 2-{[(3S,4R)-1-acryloyl-3-methoxypiperidin-4-yl]amino}-N-(2,2,2-trifluoroethyl)-5H-pyrrolo[2,3-b]pyrazine-7-carboxamide] | 835 | 0.979 | 77 | 315
C=CC(=O)N1CCN(c2cnc3[nH]cc(C(=O)N[C@H](CC)CC#N)c3n2)CC1(C)C [Example 318, 2-(4-acryloyl-3,3-dimethylpiperazin-1-yl)-N-[(2R)-1-cyanobutan-2-yl]-5H-pyrrolo[2,3-b]pyrazine-7-carboxamide] | 1760 | 0.535 | 59 | 214
C=CC(=O)N1CCN(c2cnc3[nH]cc(C(=O)NCCC(F)(F)F)c3n2)C[C@@H]1CC(C)C [Example 329, 2-[(3S)-4-acryloyl-3-(2-methylpropyl)piperazin-1-yl]-N-(3,3,3-trifluoropropyl)-5H-pyrrolo[2,3-b]pyrazine-7-carboxamide] | 6290 | 0.587 | 60 | 247
C=CC(=O)N1CCN(c2cnc3[nH]cc(C(=O)NCC(C)(C)C)c3n2)C[C@@H]1CC(C)C [Example 330, 2-[(3S)-4-acryloyl-3-(2-methylpropyl)piperazin-1-yl]-N-(2,2-dimethylpropyl)-5H-pyrrolo[2,3-b]pyrazine-7-carboxamide] | 1970 | 0.287 | 45 | 122
C=CC(=O)N1CCN(c2cnc3[nH]cc(C(=O)NC4CCCC4)c3n2)CC1(C)C [Example 334, 2-(4-acryloyl-3,3-dimethylpiperazin-1-yl)-N-cyclopentyl-5H-pyrrolo[2,3-b]pyrazine-7-carboxamide] | 3920 | 0.703 | 93 | 73.6
C=CC(=O)N1CCN(c2cnc3[nH]cc(C(=O)NC[C@H](C)CC(F)(F)F)c3n2)CC1 [Example 336, 2-(4-acryloylpiperazin-1-yl)-N-[(2R)-4,4,4-trifluoro-2-methylbutyl]-5H-pyrrolo[2,3-b]pyrazine-7-carboxamide] | 373 | 0.24 | 26 | 107
